Measured values reported in ChEMBL document CHEMBL1697781, “Assessment of the health effects of chemicals in humans: II. Construction of an adverse effects database for QSAR modeling” (Curr Drug Discov Technol, 2004).

Key:
Details in all cases: human; call rule not given here
Hepatotoxicity [1] = assay: FDA HLAED, liver enzyme composite activity
Hepatotoxicity [2] = assay: FDA HLAED, gamma-glutamyl transferase (GGT) increase
Hepatotoxicity [3] = assay: FDA HLAED, serum glutamic oxaloacetic transaminase (SGOT) increase
Hepatotoxicity [4] = assay: FDA HLAED, serum glutamic pyruvic transaminase (SGPT) increase
Hepatotoxicity [5] = assay: FDA HLAED, alkaline phosphatase increase
Hepatotoxicity [6] = assay: FDA HLAED, lactate dehydrogenase (LDH) increase
Throughout, for GGT Increase - Index Value: reference of the scale not given here.
Throughout, for LDH Increase - Index Value: reference of the scale not given here.

SMILES | Composite Activity - Active (Hepatotoxicity [1]) | Composite Activity - Marginal (Hepatotoxicity [1]) | Composite Activity - Score (Hepatotoxicity [1]) | GGT Increase - Activity Score (Hepatotoxicity [2]) | GGT Increase - Index Value (Hepatotoxicity [2]) | GGT Increase - Number of Reports (Hepatotoxicity [2]) | SGOT Increase - Activity Score (Hepatotoxicity [3]) | SGOT Increase - Index Value (Hepatotoxicity [3]) | SGOT Increase - Number of Reports (Hepatotoxicity [3]) | SGPT Increase - Activity Score (Hepatotoxicity [4]) | SGPT Increase - Index Value (Hepatotoxicity [4]) | SGPT Increase - Number of Reports (Hepatotoxicity [4]) | Alkaline Phosphatase Increase - Activity Score (Hepatotoxicity [5]) | Alkaline Phosphatase Increase - Index Value (Hepatotoxicity [5]) | Alkaline Phosphatase Increase - Number of Reports (Hepatotoxicity [5]) | LDH Increase - Activity Score (Hepatotoxicity [6]) | LDH Increase - Index Value (Hepatotoxicity [6]) | LDH Increase - Number of Reports (Hepatotoxicity [6]) | Composite Activity - Active (Hepatotoxicity [1]; Liver) | Composite Activity - Marginal (Hepatotoxicity [1]; Liver) | further results
C[C@@H](O)[C@H]1C(=O)N2C(C(=O)O)=C(S[C@@H]3CN[C@H](C(=O)N(C)C)C3)[C@H](C)[C@H]12 [MEROPENEM] | 2 | 1 | Active | Inactive | 0 | < 4 | Active | 50.8 | < 4 | Active | 50.8 | < 4 | Inactive | 0 | < 4 | Marginally Active | 33.8 | < 4 |  |  | 
Nc1ccc(O)c(C(=O)O)c1 [MESALAMINE] | 0 | 0 | Inactive | Inactive | 1.5 | >= 4 | Inactive | 2.2 | >= 4 | Inactive | 1.8 | >= 4 | Inactive | 1.3 | >= 4 | Inactive | 1.1 | >= 4 |  |  | 
O=S(=O)([O-])CCS.[Na+] [MESNA] | 0 | 0 | Inactive | Inactive | 0 | < 4 | Inactive | 5 | < 4 | Inactive | 0 | < 4 | Inactive | 0 | < 4 | Inactive | 5 | < 4 |  |  | 
CN(C)C(=N)N=C(N)N [METFORMIN] |  |  |  | Inactive | 0 | < 4 | Inactive | 0 | < 4 | Inactive | 0 | < 4 | Inactive | 0 | < 4 | Inactive | 0 | < 4 | 0 | 0 | Composite Activity - Score (Hepatotoxicity [1]; Liver): Inactive
CC(=O)Oc1c(C)cc(OCC(O)CNC(C)C)c(C)c1C (configuration not stated) [METIPRANOLOL] | 0 | 0 | Inactive | Inactive | 0 | < 4 | Inactive | 0 | < 4 | Inactive | 0 | < 4 | Inactive | 0 | < 4 | Inactive | 0 | < 4 |  |  | 
CCN(CC)CCNC(=O)c1cc(Cl)c(N)cc1OC [METOCLOPRAMIDE] | 0 | 0 | Inactive | Inactive | 0 | < 4 | Inactive | 0 | < 4 | Inactive | 0 | < 4 | Inactive | No Shipping Units | < 4 | Inactive | 0 | < 4 |  |  | 
COCCc1ccc(OCC(O)CNC(C)C)cc1 (configuration not stated) [METOPROLOL] | 0 | 0 | Inactive | Inactive | 0 | < 4 | Inactive | 0.5 | >= 4 | Inactive | 0.5 | >= 4 | Inactive | 0.4 | >= 4 | Inactive | 0.3 | < 4 |  |  | 
C[C@](N)(Cc1ccc(O)cc1)C(=O)O [METYROSINE] |  |  |  | Inactive | 0 | < 4 | Inactive | 0 | < 4 | Inactive | 0 | < 4 | Inactive | 0 | < 4 | Inactive | 0 | < 4 | 0 | 0 | Composite Activity - Score (Hepatotoxicity [1]; Liver): Inactive
Cc1cccc(C)c1OCC(C)N (configuration not stated) [MEXILETINE] |  |  |  | Inactive | 0 | < 4 | Active | 6.7 | >= 4 | Marginally Active | 3.6 | >= 4 | Marginally Active | 3.1 | >= 4 | Inactive | 2 | >= 4 | 1 | 2 | Composite Activity - Score (Hepatotoxicity [1]; Liver): Inactive
